In US20250318524A1, “ANTIMICROBIAL COATING COMPOSITION AND METHOD OF USE THEREOF” (priority 2024, published 2025):

Assay: Selection of antimicrobial agents: solubility in aqueous solution, stability, compatibility with the coating composition
Conditions: 20 wt. % in aqueous solution, during storage

N=C(NCCCCCCNC(=N)NC(=N)Nc1ccc(Cl)cc1)NC(=N)Nc1ccc(Cl)cc1.O=C(O)[C@H](O)[C@@H](O)[C@H](O)[C@H](O)CO.O=C(O)[C@H](O)[C@@H](O)[C@H](O)[C@H](O)CO [Chlorhexidine gluconate, chlorhexidine gluconate]
colour of solution over time: turned dark brown
